How the values were obtained:
Assay in all cases: relative viability (nuclei count vs DMSO), 5 days (fraction); higher = more cells survive
BI-D1870 + Olaparib = compound: CC(C)CCN1c2nc(Nc3cc(F)c(O)c(F)c3)ncc2N(C)C(=O)C1C [BI-D1870] + O=C(c1cc(Cc2n[nH]c(=O)c3ccccc23)ccc1F)N1CCN(C(=O)C2CC2)CC1 [Olaparib] (partner 8 µM)
Method in brief: (§1)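 Lung cancer cell lines were seeded in 1536-well plates and dosed by pin tool the next day, with either a single drug or a fixed anchor-drug dose combined with five library-drug doses (not always all listed) spaced in √10 steps. Five days later, one step fixed the cells and stained their nuclei (final 0.05% Triton X-100, 1% formaldehyde, 1 ug/ml Hoechst), and nuclei were counted on 4× images. Relative viability is the nuclei count in treated wells divided by the count in vehicle wells, and each value is the median of duplicate plates.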

Zebularine + Trametinib = compound: O=c1ncccn1[C@@H]1O[C@H](CO)[C@@H](O)[C@H]1O [Zebularine] + CC(=O)Nc1cccc(-n2c(=O)n(C3CC3)c(=O)c3c(Nc4ccc(I)cc4F)n(C)c(=O)c(C)c32)c1 [Trametinib] (partner 0.02 µM)
Method in brief: as §1

Zebularine + OSI-027 = compound: O=c1ncccn1[C@@H]1O[C@H](CO)[C@@H](O)[C@H]1O [Zebularine] + COc1cccc2cc(-c3nc([C@H]4CC[C@H](C(=O)O)CC4)n4ncnc(N)c34)[nH]c12 [OSI-027] (partner 0.5 µM)
Method in brief: as §1

Zebularine + Crizotinib = compound: O=c1ncccn1[C@@H]1O[C@H](CO)[C@@H](O)[C@H]1O [Zebularine] + C[C@@H](Oc1cc(-c2cnn(C3CCNCC3)c2)cnc1N)c1c(Cl)ccc(F)c1Cl [Crizotinib] (partner 1 µM)
Method in brief: as §1

| Cell Line | relative viability (BI-D1870 + Olaparib; first compound 0.04 µM) | relative viability (BI-D1870 + Olaparib; first compound 0.1265 µM) | relative viability (BI-D1870 + Olaparib; first compound 0.4 µM) | relative viability (BI-D1870 + Olaparib; first compound 1.265 µM) | relative viability (BI-D1870 + Olaparib; first compound 4 µM) | relative viability (Zebularine + Trametinib; first compound 1 µM) | relative viability (Zebularine + Trametinib; first compound 3.162 µM) | relative viability (Zebularine + Trametinib; first compound 31.62 µM) | relative viability (Zebularine + Trametinib; first compound 100 µM) | relative viability (Zebularine + OSI-027; first compound 1 µM) | relative viability (Zebularine + OSI-027; first compound 3.162 µM) | relative viability (Zebularine + OSI-027; first compound 10 µM) | relative viability (Zebularine + OSI-027; first compound 31.62 µM) | relative viability (Zebularine + OSI-027; first compound 100 µM) | relative viability (Zebularine + Crizotinib; first compound 1 µM) | relative viability (Zebularine + Crizotinib; first compound 3.162 µM) | relative viability (Zebularine + Crizotinib; first compound 10 µM) | relative viability (Zebularine + Crizotinib; first compound 31.62 µM) | relative viability (Zebularine + Crizotinib; first compound 100 µM) | relative viability (Zebularine + Trametinib; first compound 10 µM) |
| --- | --- | --- | --- | --- | --- | --- | --- | --- | --- | --- | --- | --- | --- | --- | --- | --- | --- | --- | --- | --- |
| H3255 | 0.591 | 0.526 | 0.59 | 0.602 | 0.526 | 0.635 | 0.65 | 0.665 | 0.599 | 0.605 | 0.522 | 0.43 | 0.689 | 0.487 | 0.945 | 0.853 | 0.576 | 0.91 | 0.858 |  |
| NCI-H1993 | 1.26 | 0.907 | 0.987 | 1.15 | 0.995 | 0.55 | 0.506 | 0.574 | 0.367 | 0.532 | 0.545 | 0.52 | 0.543 | 0.498 | 0.732 | 0.801 |  | 0.862 | 0.646 | 0.51 |
| NCI-H1734 | 0.684 | 0.545 | 0.605 | 0.673 | 0.463 | 0.738 | 0.641 | 0.54 | 0.275 | 0.672 | 0.556 | 0.488 | 0.425 | 0.317 | 0.71 | 0.696 | 0.391 | 0.384 | 0.295 | 0.527 |
| HOP-62 | 0.545 | 0.364 | 0.388 | 0.525 | 0.383 | 0.456 | 0.435 | 0.244 | 0.191 | 0.945 | 0.745 | 0.493 | 0.465 | 0.319 | 0.923 | 0.245 | 0.601 | 0.209 | 0.129 | 0.282 |
| LOU-NH91 | 1.06 | 0.892 | 0.903 | 0.911 | 0.669 | 0.773 | 0.814 | 0.843 | 0.65 | 0.746 | 0.7 | 0.66 | 0.699 | 0.571 | 0.713 | 0.732 | 0.693 | 0.738 | 0.647 | 0.718 |
| ChaGo-K-1 | 0.451 | 0.379 | 0.414 | 0.412 | 0.303 | 0.913 | 0.874 | 0.246 | 0.204 | 0.66 | 0.593 | 0.331 | 0.239 | 0.23 | 1.09 | 1 | 0.603 | 0.406 | 0.39 | 0.438 |
| NCI-H2228 | 0.678 | 0.429 | 0.511 | 0.717 | 0.314 | 0.612 | 0.251 | 0.417 | 0.252 | 0.604 | 0.514 | 0.284 | 0.607 | 0.275 | 0.462 | 0.38 | 0.42 | 0.521 | 0.37 |  |
| PC-14 | 0.364 | 0.251 | 0.273 | 0.197 | 0.138 | 0.7 | 0.517 | 0.117 | 0.101 | 0.778 | 0.437 | 0.146 | 0.121 | 0.0877 | 1.01 | 0.81 | 0.271 | 0.141 | 0.122 | 0.197 |
| NCI-H1437 | 0.617 | 0.577 | 0.578 | 0.578 | 0.445 | 0.545 | 0.532 | 0.619 | 0.661 | 0.926 | 0.933 | 0.761 | 0.859 | 0.611 | 1.09 | 0.987 |  | 0.902 | 0.31 | 0.419 |
| NCI-H460 | 0.492 | 0.384 | 0.323 | 0.436 | 0.179 | 0.24 | 0.182 | 0.196 | 0.0781 | 0.971 | 0.707 | 0.336 | 0.18 | 0.0887 | 1.06 | 0.987 | 0.273 | 0.375 | 0.1 | 0.0901 |
| NCI-H1666 | 0.751 | 0.715 | 0.736 | 0.7 | 0.72 | 0.884 | 0.817 | 0.865 | 0.842 | 0.721 | 0.785 | 0.634 | 0.947 | 0.979 | 1.01 | 0.783 | 1.05 | 1.02 | 0.596 | 0.699 |
| NCI-H1651 | 0.2 | 0.157 | 0.175 | 0.187 | 0.178 | 0.875 | 0.865 | 0.772 | 0.35 | 0.735 | 0.69 | 0.549 | 0.716 | 0.447 | 0.919 | 0.893 | 0.604 | 0.745 | 0.514 | 0.82 |
| NCI-H1755 | 0.855 | 0.842 | 0.893 | 0.896 | 0.82 | 0.885 | 0.766 | 0.761 | 0.61 | 0.801 | 0.732 | 0.631 | 0.85 | 0.566 | 1.03 | 0.872 | 0.612 | 0.864 | 0.466 | 0.726 |
| NCI-H661 | 0.781 | 0.746 | 0.738 | 0.737 | 0.58 | 0.601 | 0.596 | 0.651 | 0.639 | 0.794 | 0.671 | 0.591 | 0.764 | 0.627 | 1.24 | 1 | 1.02 | 1.05 | 0.997 | 0.457 |
| HARA | 0.795 | 0.826 | 0.86 | 0.868 | 0.972 | 1.03 | 0.458 | 0.688 | 0.651 | 0.367 |  |  | 0.42 | 0.245 | 1.17 | 1.11 |  | 1.17 | 0.834 | 0.48 |
| NCI-H596 | 0.73 | 0.743 | 0.625 | 0.671 | 0.63 | 0.853 | 0.904 | 0.918 | 0.774 | 0.696 | 0.78 | 0.593 | 0.708 | 0.559 | 0.994 | 0.948 | 0.85 | 0.902 | 0.988 | 0.58 |

From the supplement of paper PMC10307832
